# How the values were obtained:
# [1] = test system: guinea pig colon; assay: spasmolytic effect in vitro on the guinea pig colon, acetylcholine-induced spasms, compared with atropinesulfate; conditions: acetylcholine spasm, relative to Atropine = 1
# Method: (§1) The compounds were examined with regard to their inhibiting effect on the formation of stress ulcers in rats and their spasmolytic effect, related to atropine, with consideration of their acute toxicity.
# The spasmolytic effect was determined in vitro on the guinea pig colon, using the experimental arrangement according to R. Magnus, Pflugers Archiv, 102, pp. 123 (1904). Acetylcholine was taken to induce spasms, the substance for comparison was atropinesulfate. The spasticum was administered one minute before the administration of the spasmolytic substance, and the spasmolytic was allowed to take effect for 1 minute.
# [2] = test system: white mice; assay: acute toxicity after peroral administration to fasted white mice; type: in vivo; conditions: mouse, six mice per dosage, at the LD50 dose
# Method: (§2) The acute toxicity was determined after peroral administration of the test substance to fasted white mice with a body weight of 18 to 20 gm. The observation period was 14 days. For each dosage a group of six mice was used.
# [3] = as above; type: in vivo; conditions: in vivo, po, mouse, observation period 14 days, read-out: LD50 peroral mgm/kg mouse
# Method: as §2
# [4] = test system: stress ulcers in rats; assay: inhibiting effect on the formation of stress ulcers in rats (Takagi and Okabe), peroral; type: in vivo; conditions: po, rat; for inhibition in vivo at 12.5 mg/kg: 12.5 mgm/kg, read-out: Ulcer inhibition in % (rat) after peroral administration of 12.5 mgm/kg; for inhibition in vivo at 25 mg/kg: 25 mgm/kg, read-out: Ulcer inhibition in % (rat) after peroral administration of 25 mgm/kg; for inhibition in vivo at 50 mg/kg: 50 mgm/kg, read-out: Ulcer inhibition in % (rat) after peroral administration of 50 mgm/kg
# Method: as §1
# The inhibiting effect on the formation of stress ulcers in rats was determined according to the method of K. Takagi and S. Okabe, Jap.Journ.Pharmac. 18,pp. 9 to 18 (1968). Fed female rats with a body weight between 220 and 260 gm were individually put into small wire cages and were subsequently kept vertically submerged in a water bath which was kept constant at a temperature of 23° C. for 16 hours, so that only the heads and the breastbones of the animals were above the water surface. The test compounds were administered perorally 5 to 10 minutes before. With each substance five animals were treated. 1 ml of a 0.9% physiological sodium chloride solution or 1 ml of a 1% tylose solution was administered to the control animals in the same way. After 18 hours the animals were killed by an overdose of ethyl chloride, the stomachs were excised, cut along the big curvature and spread on a cork plate. The evaluation was carried out according to the methods of Marazzi-Uberti and Turba, Med. Exp. 4, pp. 284 to 292 (1961), and Takagi and Okabe (supra)
SMILES,Spasmolysis (acetylcholine) in respect to Atropine = 1 [1],number of animals that died [2],LD50 at 336 h [3] [mg/kg],inhibition in vivo at 12.5 mg/kg [4] [%],inhibition in vivo at 25 mg/kg [4] [%],inhibition in vivo at 50 mg/kg [4] [%]
"C=C(C)CN1CCN(CC(=O)N2c3ccccc3C(=O)Nc3cccnc32)CC1 [A, 5,11-Dihydro-11-{[4-(2-methyl-allyl)-1-piperazinyl]acetyl}-6H-pyrido[2,3-b][1,4]benzodiazepin-6-one]",1/330,"+ (means, 0 of 6 animals died)",> 3000,32,52,90
"CC(C)=CCN1CCN(CC(=O)N2c3ccccc3C(=O)Nc3cccnc32)CC1.Cl.Cl [B, 5,11-Dihydro-11-{[4-(3-methyl-but-2-enyl)-1-piperazinyl]acetyl}-6H-pyrido[2,3-b][1,4]benzodiazepin-6-one dihydrochloride]",1/200,"+ (means, 0 of 6 animals died)",> 1500,52,63,84
"CC(C)(C)CN1CCN(CC(=O)N2c3ccccc3C(=O)Nc3cccnc32)CC1 [C, 5,11-Dihydro-11-{[4-(2,2-dimethyl-propyl)-1-piperazinyl]acetyl}-6H-pyrido[2,3-b][1,4]benzodiazepin-6-one]",1/70,"+ (means, 0 of 6 animals died)",> 1500,39,61,95
"O=C1Nc2cccnc2N(C(=O)CN2CCN(CC34CC5CC(CC(C5)C3)C4)CC2)c2ccccc21 [D, 11-{[4-(1-Adamantyl-methyl)-1-piperazinyl]acetyl}-5,11-dihydro-6-H-pyrido[2,3-b][1,4]benzodiazepin-6-one]",1/86,"+ (means, 0 of 6 animals died)",> 3000,26,47,79
"O=C1Nc2cccnc2N(C(=O)CN2CCN(Cc3ccc4c(c3)OCO4)CC2)c2ccccc21 [E, 5,11-Dihydro-11-{[4-(3,4-methylenedioxy-benzyl)-1-piperazinyl]-acetyl}-6H-pyrido[2,3-b][1,4]benzodiazepin-6-one]",1/78,"+++ (means, 2 of 6 animals died)",> 3000,37,73,95
"CC1CN(C)CCN1CC(=O)N1c2ccccc2C(=O)Nc2cccnc21.Cl (stereo not drawn) [F, 5,11-Dihydro-11-[(2,4-dimethyl-1-piperazinyl)acetyl]-6H-pyrido-[2,3-b][1,4]benzodiazepin-6-one-hydrochloride]",1/130,"++ (means, 1 of 6 animals died)",> 3000,84,90,95
"CN1C(=O)c2ccccc2N(C(=O)CN2CCN(Cc3ccc4c(c3)OCO4)CC2)c2ncccc21 [G, 5,11-Dihydro-5-methyl-11-{[4-(3,4methylenedioxy-benzyl)-1-piperazinyl]acetyl}-6H-pyrido[2,3-b][1,4]benzodiazepin-6-one]",1/290,"+++ (means, 2 of 6 animals died)",> 1500,21,58,90
"O=C1Nc2cccnc2N(C(=O)CN2CCN(CC=Cc3ccccc3)CC2)c2ccccc21 [H, 11-[(4-Cinnamyl-1-piperazinyl)acetyl]-5,11-dihydro-6H-pyrido-[2,3-b][1,4]benzodiazepin-6-one]",1/700,"++++ (means, 4 of 6 animals died)",~3000,53,69,95

# — patent US4213984A, “11-(Piperazino-acetyl)-5,11-di hydro-6H-pyrido[2,3-b][1,4]benzodiazepin-6-ones and salts thereof” (Boehringer Ingelheim GmbH, priority 1977, dated 1980)
